Measurements taken from patent publication US20260125428A1, “SYNTHETIC TRIPLEX PEPTIDE NUCLEIC ACID-BASED INHIBITORS FOR CANCER THERAPY” (University of Connecticut, priority 2022, published 2026).

System: c-myc protein
Experiment: Efficacy study in Ep-myc mice: c-myc protein in lymph nodes by western blot
Assay type: in vivo
Conditions: SC 60 mg/kg over 2 days, euthanized day 3, western blot
Procedure: FIGS. 8A-D show organ distribution after intravenous and subcutaneous administration of indicated PNAs. (8A) The organ distribution of γPNA-NLS TAMRA after intravenous (IV) and subcutaneous (SC) administration in transgenic mice model of B-cell lymphoma (Ep-myc). γPNA-NLS TAMRA was administered at 5 mg/kg via IV and SC route and organ distribution was determined via IVIS imaging after 24 h. (8B) Confocal microscopy images of different lymph nodes (LNs) after IV and SC injection of γPNA-NLS TAMRA. Blue indicates DAPI and red indicated TAMRA. Scale bar, 30 μm. (8C) C-myc protein levels in brachial lymph nodes of γPNA5-NLS treated mice in comparison to the control (untreated mice). N=4 mice per group. (8D) C-myc protein levels in axillary lymph nodes of γPNA5-NLS treated mice in comparison to the control (untreated mice). N=4 mice per group. […]
Western blot analysis: Total protein was extracted from collected lymphocytes using 1×RIPA buffer (Cell signaling technology, USA) containing protease inhibitor. The concentration of protein was determined using absorbance-based DC protein assay (Bio-Rad, USA). […] The bands were detected using anti-rabbit IgG HRP linked secondary antibody (Cell signaling technology, #7074) (1:2000 dilution, 5% milk in TBST) and HRP substrate (Millipore sigma). The blots were imaged using ChemiDoc imager (Bio-Rad, USA) and band intensities were quantified using imageJ.

“X3TCCCTCCCCTCCCTTCTTTTTCCX2 (gamma PNA; NLS peptide; gammaPNA; misc_feature 1 JJJTJJJT-linker- is covalently linked to the backbone, wherein J is pseudoisocytosine and the linker is 11-Amino-3,6,9-Trioxaundecanoic Acid (DCHA), represented as -OOO-; misc_feature 23 -K-linker-SEQ ID NO: 5 is covalently linked to the backbone, wherein the linker is 11-Amino-3,6,9-Trioxaundecanoic Acid (DCHA), represented as -OOO-; modified_base 1..23 OTHER; peptide nuc) [γPNA5-NLS]” was tested, and the “c-myc protein levels in brachial and axillary lymph nodes in comparison to untreated group” value was “substantial decrease in c-myc protein levels”.
